{
  "source": "paper PMC9120017",
  "about": "“Inhibition mechanism of the chloride channel TMEM16A by the pore blocker 1PBC” (Nature Communications, 2022)",
  "target": "T1, mouse TMEM16A mutant I512A (Mus musculus, UniProt Q8BHY3, I512A)",
  "T1 construct": "expressed in transfected cells; host or cells: HEK293T",
  "T1 sequence (Q8BHY3 1-960 I512A)": "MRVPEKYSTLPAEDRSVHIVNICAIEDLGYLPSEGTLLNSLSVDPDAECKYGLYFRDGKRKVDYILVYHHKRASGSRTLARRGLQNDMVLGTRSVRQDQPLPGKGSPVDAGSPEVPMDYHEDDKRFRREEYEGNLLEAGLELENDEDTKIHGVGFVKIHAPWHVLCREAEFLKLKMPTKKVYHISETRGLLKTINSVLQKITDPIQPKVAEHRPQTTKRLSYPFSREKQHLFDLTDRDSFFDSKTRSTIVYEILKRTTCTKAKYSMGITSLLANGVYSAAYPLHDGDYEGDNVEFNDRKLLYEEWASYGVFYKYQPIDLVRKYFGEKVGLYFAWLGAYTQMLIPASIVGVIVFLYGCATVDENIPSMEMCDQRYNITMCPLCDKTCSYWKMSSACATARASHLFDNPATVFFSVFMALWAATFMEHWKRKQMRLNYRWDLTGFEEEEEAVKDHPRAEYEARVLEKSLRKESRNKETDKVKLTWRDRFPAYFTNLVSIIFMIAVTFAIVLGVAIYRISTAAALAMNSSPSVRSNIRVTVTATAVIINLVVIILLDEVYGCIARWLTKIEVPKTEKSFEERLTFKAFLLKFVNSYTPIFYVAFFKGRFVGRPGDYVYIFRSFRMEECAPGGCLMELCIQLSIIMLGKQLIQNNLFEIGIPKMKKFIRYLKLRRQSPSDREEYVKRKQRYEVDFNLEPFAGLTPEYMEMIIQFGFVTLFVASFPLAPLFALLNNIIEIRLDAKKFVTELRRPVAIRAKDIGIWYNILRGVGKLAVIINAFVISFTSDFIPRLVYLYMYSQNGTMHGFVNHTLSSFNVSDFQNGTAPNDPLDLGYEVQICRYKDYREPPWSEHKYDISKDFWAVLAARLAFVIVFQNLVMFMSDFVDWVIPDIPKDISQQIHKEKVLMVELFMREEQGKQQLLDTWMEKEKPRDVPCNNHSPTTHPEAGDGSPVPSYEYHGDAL",
  "test": "Inside-out patch recording of 1PBC block, mutant I512A",
  "type": "cell-based",
  "settings": "for remaining activity at 30 µM: 1PBC 30; for remaining activity at 30 µM / remaining activity at 100 µM: read-out: fraction of unblocked current; for remaining activity at 100 µM: 1PBC 100",
  "method": "HEK293T cells (ATCC CRL-1573) were maintained in Dulbecco’s modified Eagle’s medium (DMEM; Sigma-Aldrich) supplemented with 10 U ml^−1 penicillin, 0.1 mg ml^−1 streptomycin (Sigma-Aldrich), 2 mM L-glutamine (Sigma-Aldrich), and 10% FBS (Sigma-Aldrich) in a humidified atmosphere containing 5% CO2 at 37 °C. HEK293S GnTI^− cells (ATCC CRL-3022) were maintained in HyClone HyCell TransFx-H medium (GE Healthcare) supplemented with 10 U ml^−1 penicillin, 0.1 mg ml^−1 streptomycin, 4 mM L-glutamine, 0.15% poloxamer 188 (Sigma-Aldrich), and 1% FBS in an atmosphere containing 5% CO2 at 185 rpm at 37 °C. The ac splice variant of mouse TMEM16A (UniProt ID: Q8BHY3), mouse TMEM16B (UniProt ID: Q8CFW1), or mouse TMEM16F (UniProt ID: Q6P9J9) bearing a 3C cleavage site, a Venus YFP, a Myc tag, and a Streptavidin-binding peptide (SBP) downstream of the open reading frame in a modified pcDNA3.1 vector (Invitrogen) were used as described previously[21],[31]. Mutations were introduced using a modified QuikChange method[58] and were verified by sequencing.\nHEK293T cells were transfected with 3–4 μg DNA per 6 cm Petri dish using the calcium phosphate co-precipitation method and were used within 24–96 h after transfection. Recordings were performed on inside-out patches excised from HEK293T cells expressing the construct of interest. Patch pipettes were pulled from borosilicate glass capillaries (O.D. 1.5 mm, I.D. 0.86 mm, Sutter Instrument) and were fire-polished with a microforge (Narishige) before use. Pipette resistance was typically 3–8 MΩ when filled with the recording solutions detailed below. Seal resistance was typically 4 GΩ or higher. Voltage-clamp recordings were made using Axopatch 200B, Digidata 1550, and Clampex 10.7 (Molecular Devices). Analog signals were filtered with the in-built 4-pole Bessel filter at 10 kHz and were digitized at 20 kHz. Solution exchange was achieved using a gravity-fed system through a theta glass pipette mounted on an ultra-fast piezo-driven stepper (Siskiyou). […] All recordings were performed at 20 °C.\nA symmetrical ionic condition was used throughout. Stock solution with Ca^2+-EGTA contained 150 mM NaCl, 5.99 mM Ca(OH)2, 5 mM EGTA, and 10 mM HEPES at pH 7.40. Stock solution with EGTA contained 150 mM NaCl, 5 mM EGTA, and 10 mM HEPES at pH 7.40. Free Ca^2+ concentrations were adjusted by mixing the stock solutions at the required ratios calculated using the WEBMAXC program (http://web.stanford.edu/~cpatton/webmaxcS.htm). Patch pipettes were filled with the stock solution with Ca^2+-EGTA, which has a free Ca^2+ concentration of 1 mM. 1PBC (ChemBridge) stock was reconstituted in anhydrous DMSO (Sigma-Aldrich) at 100 mM and stored at −20 °C. Working solutions with 1PBC were prepared by serial dilution. Unless otherwise stated, experiments were performed at a saturating Ca^2+ concentration as shown in Supplementary Table 1 and the primary data were corrected for current rundown as described previously[21],[25].\nConcentration-response relations, obtained from the ratio of the I-V plots before and after the application of the blocker, were fitted to the Hill equation,1 I/Imax=1/1+IC50/[blocker]^h where I/Imax is the normalized current responses, IC50 defines the concentration at which inhibition is at its half-maximum, and h is the Hill coefficient.",
  "note": "Read-outs that look alike come from different tables or passages of the source.",
  "data": [
    {"compound": "N#Cc1c(C(F)(F)F)cc(O)n2c1nc1ccccc12", "note": "[1PBC]", "values": [
      {"measurement": "remaining activity at 30 µM", "setting": "-60 mV", "value": 62.3, "unit": "%"},
      {"measurement": "remaining activity at 30 µM", "setting": "-80 mV", "value": 65.6, "unit": "%"},
      {"measurement": "remaining activity at 30 µM", "setting": "-100 mV", "value": 68.2, "unit": "%"},
      {"measurement": "remaining activity at 30 µM", "setting": "-120 mV", "value": 70.8, "unit": "%"},
      {"measurement": "remaining activity at 30 µM", "setting": "-140 mV", "value": 72, "unit": "%"},
      {"measurement": "remaining activity at 100 µM", "setting": "0 mV", "value": 23.3, "unit": "%"},
      {"measurement": "remaining activity at 100 µM", "setting": "20 mV", "value": 19.1, "unit": "%"},
      {"measurement": "remaining activity at 100 µM", "setting": "40 mV", "value": 18.1, "unit": "%"},
      {"measurement": "remaining activity at 100 µM", "setting": "60 mV", "value": 15.6, "unit": "%"},
      {"measurement": "remaining activity at 100 µM", "setting": "80 mV", "value": 14, "unit": "%"},
      {"measurement": "remaining activity at 100 µM", "setting": "100 mV", "value": 13.1, "unit": "%"},
      {"measurement": "remaining activity at 100 µM", "setting": "120 mV", "value": 12.2, "unit": "%"},
      {"measurement": "remaining activity at 100 µM", "setting": "140 mV", "value": 12.1, "unit": "%"},
      {"measurement": "remaining activity at 100 µM", "setting": "-20 mV", "value": 27.5, "unit": "%"},
      {"measurement": "remaining activity at 100 µM", "setting": "-40 mV", "value": 29.4, "unit": "%"},
      {"measurement": "remaining activity at 100 µM", "setting": "-60 mV", "value": 32.8, "unit": "%"},
      {"measurement": "remaining activity at 100 µM", "setting": "-80 mV", "value": 36, "unit": "%"},
      {"measurement": "remaining activity at 100 µM", "setting": "-100 mV", "value": 39.7, "unit": "%"},
      {"measurement": "remaining activity at 100 µM", "setting": "-120 mV", "value": 42.4, "unit": "%"},
      {"measurement": "remaining activity at 100 µM", "setting": "-140 mV", "value": 45.3, "unit": "%"},
      {"measurement": "IC50", "setting": "20 mV, 2 µM Ca2+", "value": 25.5, "unit": "µM"},
      {"measurement": "IC50", "setting": "40 mV, 2 µM Ca2+", "value": 21.8, "unit": "µM"},
      {"measurement": "IC50", "setting": "60 mV, 2 µM Ca2+", "value": 19, "unit": "µM"},
      {"measurement": "log-fold IC50 (change of mutant vs WT)", "setting": "80 mV", "value": 0.8662},
      {"measurement": "IC50", "setting": "80 mV, 2 µM Ca2+", "value": 17, "unit": "µM"},
      {"measurement": "IC50", "setting": "100 mV, 2 µM Ca2+", "value": 15.9, "unit": "µM"},
      {"measurement": "IC50", "setting": "120 mV, 2 µM Ca2+", "value": 15.8, "unit": "µM"},
      {"measurement": "IC50", "setting": "140 mV, 2 µM Ca2+", "value": 16.6, "unit": "µM"},
      {"measurement": "IC50", "setting": "-20 mV, 2 µM Ca2+", "value": 37.1, "unit": "µM"},
      {"measurement": "IC50", "setting": "-40 mV, 2 µM Ca2+", "value": 42.9, "unit": "µM"},
      {"measurement": "IC50", "setting": "-60 mV, 2 µM Ca2+", "value": 50.1, "unit": "µM"},
      {"measurement": "IC50", "setting": "-80 mV, 2 µM Ca2+", "value": 57.9, "unit": "µM"},
      {"measurement": "IC50", "setting": "-100 mV, 2 µM Ca2+", "value": 66.1, "unit": "µM"},
      {"measurement": "IC50", "setting": "-120 mV, 2 µM Ca2+", "value": 73.6, "unit": "µM"},
      {"measurement": "IC50", "setting": "-140 mV, 2 µM Ca2+", "value": 80.9, "unit": "µM"},
      {"measurement": "IC50", "setting": "I512A, V 0 mV", "value": 30.7, "unit": "µM"},
      {"measurement": "IC50", "setting": "I512A, V 20 mV", "value": 25.5, "unit": "µM"},
      {"measurement": "IC50", "setting": "I512A, V 40 mV", "value": 21.8, "unit": "µM"},
      {"measurement": "IC50", "setting": "I512A, V 60 mV", "value": 19, "unit": "µM"},
      {"measurement": "IC50", "setting": "I512A, V 80 mV", "value": 17, "unit": "µM"},
      {"measurement": "IC50", "setting": "I512A, V 100 mV", "value": 15.9, "unit": "µM"},
      {"measurement": "IC50", "setting": "I512A, V 120 mV", "value": 15.8, "unit": "µM"},
      {"measurement": "IC50", "setting": "I512A, V 140 mV", "value": 16.6, "unit": "µM"},
      {"measurement": "IC50", "setting": "I512A, V -20 mV", "value": 37.1, "unit": "µM"},
      {"measurement": "IC50", "setting": "I512A, V -40 mV", "value": 42.9, "unit": "µM"},
      {"measurement": "IC50", "setting": "I512A, V -60 mV", "value": 50.1, "unit": "µM"},
      {"measurement": "IC50", "setting": "I512A, V -80 mV", "value": 57.9, "unit": "µM"},
      {"measurement": "IC50", "setting": "I512A, V -100 mV", "value": 66.1, "unit": "µM"},
      {"measurement": "IC50", "setting": "I512A, V -120 mV", "value": 73.6, "unit": "µM"},
      {"measurement": "IC50", "setting": "I512A, V -140 mV", "value": 80.9, "unit": "µM"}
    ]}
  ]
}
